These are literature values, as cited in patent US9622967B2, “Highly stable compositions of orally active nucleotide analogues or orally active nucleotide analogue prodrugs” (Sigmapharm Laboratories, LLC, priority 2010, dated 2017).

Structures can show the parent of a compound that is named as a salt.

On to `CC(C)OC(=O)OCOP(=O)(CO[C@H](C)Cn1cnc2c(N)ncnc21)OCOC(=O)OC(C)C` [tenofovir disoproxil fumarate], for which, where the note is “3 days at 60° C. and 75% RH”, the “monoester mono(POC)-PMPA formed, weight percentage” value is reported as 3.1%. Also, the “monoester mono(POC)PMPA already formed soon after production” value (soon after production) is recorded as “up to 1.0 % w/w”.
